From the supplement of paper PMC10307832

Legend:
Assay in all cases: relative viability (nuclei count vs DMSO), 5 days (fraction); higher = more cells survive
Ponatinib + Bortezomib = compound: Cc1ccc(C(=O)Nc2ccc(CN3CCN(C)CC3)c(C(F)(F)F)c2)cc1C#Cc1cnc2cccnn12 [Ponatinib] + CC(C)C[C@H](NC(=O)[C@H](Cc1ccccc1)NC(=O)c1cnccn1)B(O)O [Bortezomib] (partner 0.002 µM)
Outline: (§1)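 Lung cancer cell lines were pin-tool dosed in 1536-well plates on the day after seeding, with either a lone drug or a fixed anchor-drug dose plus five library-drug doses (not always all listed) in √10 steps. Nuclei were counted on 4× images after 5 days. Relative viability is the ratio of treated-well to vehicle-well nuclei counts, with each value a median of duplicate plates.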

Ponatinib + Pictilisib = compound: Cc1ccc(C(=O)Nc2ccc(CN3CCN(C)CC3)c(C(F)(F)F)c2)cc1C#Cc1cnc2cccnn12 [Ponatinib] + CS(=O)(=O)N1CCN(Cc2cc3nc(-c4cccc5[nH]ncc45)nc(N4CCOCC4)c3s2)CC1 [Pictilisib] (partner 1 µM)
Outline: as §1

Ponatinib + Olaparib = compound: Cc1ccc(C(=O)Nc2ccc(CN3CCN(C)CC3)c(C(F)(F)F)c2)cc1C#Cc1cnc2cccnn12 [Ponatinib] + O=C(c1cc(Cc2n[nH]c(=O)c3ccccc23)ccc1F)N1CCN(C(=O)C2CC2)CC1 [Olaparib] (partner 8 µM)
Outline: as §1

Pazopanib + Dasatinib = compound: Cc1ccc(Nc2nccc(N(C)c3ccc4c(C)n(C)nc4c3)n2)cc1S(N)(=O)=O [Pazopanib] + Cc1nc(Nc2ncc(C(=O)Nc3c(C)cccc3Cl)s2)cc(N2CCN(CCO)CC2)n1 [Dasatinib] (partner 0.075 µM)
Outline: as §1

Cell Line	relative viability (Ponatinib + Bortezomib; first compound 0.002 µM)	relative viability (Ponatinib + Bortezomib; first compound 0.006325 µM)	relative viability (Ponatinib + Bortezomib; first compound 0.06325 µM)	relative viability (Ponatinib + Bortezomib; first compound 0.2 µM)	relative viability (Ponatinib + Pictilisib; first compound 0.002 µM)	relative viability (Ponatinib + Pictilisib; first compound 0.006325 µM)	relative viability (Ponatinib + Pictilisib; first compound 0.06325 µM)	relative viability (Ponatinib + Pictilisib; first compound 0.2 µM)	relative viability (Ponatinib + Olaparib; first compound 0.002 µM)	relative viability (Ponatinib + Olaparib; first compound 0.006325 µM)	relative viability (Ponatinib + Olaparib; first compound 0.06325 µM)	relative viability (Ponatinib + Olaparib; first compound 0.2 µM)	relative viability (Pazopanib + Dasatinib; first compound 0.01 µM)	relative viability (Pazopanib + Dasatinib; first compound 0.03162 µM)	relative viability (Pazopanib + Dasatinib; first compound 0.1 µM)	relative viability (Pazopanib + Dasatinib; first compound 0.3162 µM)	relative viability (Pazopanib + Dasatinib; first compound 1 µM)
NCI-H1915	0.849	0.975	0.923	0.871	0.892	0.98	1.03	1.03	0.254	0.275	0.278	0.234	0.253	0.319	0.321	0.318	0.402
NCI-H1975	0.353	0.296	0.338	0.36	0.311	0.309	0.408	0.353	0.756	0.77	0.787	0.732	0.371	0.359	0.336	0.415	0.359
NCI-H1993	1.11	1.15	1.4	1.23	0.804	0.805	0.73	0.868	1.01	1.01	1.16	1.12		0.6	0.542	0.588	0.582
NCI-H2009	0.86	0.969	1.05	1	0.755	0.838	0.794	0.625	0.586	0.632	0.655	0.616	0.279	0.324	0.298	0.335	0.226
NCI-H2023	0.957	0.982	1.17	0.764	0.261	0.292	0.298	0.212	0.455	0.465	0.552	0.451	0.528	0.566	0.473	0.535	0.577
NCI-H2085	0.98	1.15	1.25	1.03	0.489	0.477	0.451	0.488	0.808	0.814	0.9	0.754	0.219	0.255	0.225	0.241	0.265
NCI-H2087	0.57	0.566	0.74	0.688	0.879	0.831	0.933	0.787	0.514	0.609	0.635	0.497	0.743	0.989	0.929	1.01	0.72
NCI-H2126	1.08	1.13	1.16	1.13	0.513	0.504	0.587	0.617	0.902	0.904	0.967	0.847	0.528	0.528	0.607	0.594	0.615
NCI-H2228	0.933	1.1	0.755	0.893	0.606	0.698	0.401	0.319	0.622	0.57	0.823	0.566	0.589	0.561	0.383	0.481	0.457
